Laboratory results from article PMC12042115 (mLife, 2025).

Tested on: wild‐type BCG cells
Format: cell-based, M. bovis BCG
Settings: protein A0A0H3MG19, BCG_2669 (Rv2642), Arsenical resistance operon repressor; down-regulated; 3 d

O=C(Oc1ccc(Cl)cc1)c1ccc(N2CCOCC2)c([N+](=O)[O-])c1 [GDI‐5755]
Mean_Ratio (GDI5755_3d vs DMSO_3d): 0.7
